Data on 12 compounds can be found in US9315459B2, “Crystalline forms of 4-[2-(4-methylphenylsulfanyl)-phenyl] piperidine” (priority 2006, dated 2016).

A short description of this data set: Solubility of salts in water, pH of the saturated solution and identity of the precipitate. It is filed as physicochemical. As to conditions: for Solubility in words: summary of table 3; for Precipitate: precipitate isolated after the solubility determination compared with the compound dissolved; for Resulting pH: pH in the saturated solution of the salt; for Formation of hydrates: when precipitated from water.

Counter-ions that a name gives are not always drawn.

Description: If the acid was a liquid it was added neat otherwise it was dissolved in the given solvent prior to addition. After mixing and precipitation stirring was continued overnight and the precipitate collected by filtration. Before drying in vacuum at 30° C. a small reference sample was withdrawn and dried at room temperature without vacuum. This procedure was included in order to test for solvates.

As to `Cc1ccc(Sc2ccccc2C2CCNCC2)cc1` [Glutamic acid 1:1], the Solubility in words result is “exceptionally high solubility”.

Regarding `Cc1ccc(Sc2ccccc2C2CCNCC2)cc1` [Sebacoinic acid, 1,8-octanedioic acid 2:1], the Precipitate entry is given as “=Start”.

For the compound `Cc1ccc(Sc2ccccc2C2CCNCC2)cc1` [HCl, 4-[2-(4-methylphenyl-sulfanyl)phenyl]piperidine hydrochloride addition salt], the Precipitate entry is “=Start”.

Regarding `Cc1ccc(Sc2ccccc2C2CCNCC2)cc1` [Glutaric acid, 1,5-pentanedioic acid 1:1], the Precipitate result is reported as “=start” and the Solubility in words result was “exceptionally high solubility”.

Take `Cc1ccc(Sc2ccccc2C2CCNCC2)cc1` [Oxalic acid 1:1]: the Precipitate result is given as “=Start”.

As to `Cc1ccc(Sc2ccccc2C2CCNCC2)cc1` [Phosphoric acid 1:1], the “Resulting pH” value was found to be 2.0.

Take `Cc1ccc(Sc2ccccc2C2CCNCC2)cc1` (racemic): the Precipitate result is listed as “=start (after” and the Solubility in words entry was “exceptionally high solubility”.

Take `Cc1ccc(Sc2ccccc2C2CCNCC2)cc1` [Fumaric acid 1:1]: the Precipitate result is listed as “=start”.

For the compound `Cc1ccc(Sc2ccccc2C2CCNCC2)cc1` [Citric acid 2:1], the Precipitate result is “=Start”.

In the case of `Cc1ccc(Sc2ccccc2C2CCNCC2)cc1` [Adipicacid, 1,6-hexanedioic acid 2:1], the Precipitate entry is “=start”.

As for `Cc1ccc(Sc2ccccc2C2CCNCC2)cc1` [D-tartaric acid, D-2,3-dihydroxy butanedioic acid 1:1], the Precipitate entry is reported as “Hydrate” and the Formation of hydrates entry is given as “do”.

Regarding `Cc1ccc(Sc2ccccc2C2CCNCC2)cc1` [HBr, 4-[2-(4-methylphenylsulfanyl)phenyl]piperidine hydrobromide], for the setting “hydrobromide”, the “Resulting pH” value was 7.0 and the Precipitate result is “=Start”. The Formation of hydrates result (listed as HBr addition salt, hydrobromide) is on record as “does not form hydrates”.
